{
  "source": "patent US8039013B2",
  "about": "“Synergistic fungidical active substance combinations” (Bayer CropScience AG, priority 2004, dated 2011)",
  "test_system": "Pyrenophora teres",
  "test": "Pyrenophora teres test (barley)/shoot treatment, field experiment",
  "type": "in vivo, Pyrenophora teres on barley",
  "details": "shoot treatment after flag leaf emergence, 62.5 g/ha, scoring long-term effect, 41 days post-application",
  "method": "Pyrenophora teres Test (Barley)/shoot Treatment, Field Experiment\nTo prepare a suitable preparation of active substance, a “commercially available” formulation of active substance or active substance combination is diluted with water to give the desired concentration.\nThe active substance preparation is applied at the application rate stated, after the flag leaf has emerged.\nThe evaluation is carried out at the point in time at which the disease symptoms are complete and readily recognizable. In this context, 0% means an efficacy which corresponds to that of the control, while an efficacy of 100% means that no disease is observed.\nThe expected efficacy in % of the untreated control was calculated using the equation\nIn this equation, x and y mean the efficacy—expressed in % of the untreated control—which the two products achieve when applied separately. If the actual efficacy of the active substance combination exceeds the value for the expected efficacy (E) as calculated by the above formula, then the effect is superadditive, i.e. a synergistic effect exists.",
  "data": [
    {"smiles": "Cn1cc(C(=O)Nc2ccc(F)cc2-c2ccc(Cl)c(Cl)c2)c(C(F)F)n1", "note": "[III-23, N-(3′,4′-dichloro-5-fluoro-1,1′-biphenyl-2-yl)-3-(difluoromethyl)-1-methyl-1H-pyrazole-4-carboxamide]", "values": [
      {"measurement": "Efficacy in % found", "result": 40, "unit": "%"}
    ]}
  ]
}
